# Measurements reported in paper PMC12838644, “Dihydrotanshinone as a Natural Product-Based CYP17A1 Lyase Inhibitor for Hyperandrogenic Disorders” (Biomolecules, 2026).
# Assays:
# CYP21A2 = molecular target: T1, CYP21A2 (Homo sapiens, UniProt P08686); assay: CYP21A2 activity assay in transiently transfected HEK-293T cells; assay type: cell-based; conditions: transfected HEK-293T cells
# T1 construct: expressed in transfected cells; host or cells: HEK293 / HEK-293T
# T1 sequence (P08686 1-495): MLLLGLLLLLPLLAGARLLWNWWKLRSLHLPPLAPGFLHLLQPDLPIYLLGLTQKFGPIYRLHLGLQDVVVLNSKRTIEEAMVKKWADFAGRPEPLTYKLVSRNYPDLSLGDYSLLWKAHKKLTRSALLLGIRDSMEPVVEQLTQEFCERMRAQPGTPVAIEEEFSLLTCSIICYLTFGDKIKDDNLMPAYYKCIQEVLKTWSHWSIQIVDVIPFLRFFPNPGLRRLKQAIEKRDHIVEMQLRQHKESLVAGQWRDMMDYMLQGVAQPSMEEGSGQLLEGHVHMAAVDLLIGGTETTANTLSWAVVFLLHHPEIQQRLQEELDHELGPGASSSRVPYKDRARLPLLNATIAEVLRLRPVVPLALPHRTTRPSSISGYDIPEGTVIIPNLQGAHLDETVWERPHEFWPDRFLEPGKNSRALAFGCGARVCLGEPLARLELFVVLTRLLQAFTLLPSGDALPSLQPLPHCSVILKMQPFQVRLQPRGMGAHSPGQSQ
# Method: Transient transfections were performed using the CYP21A2 WT vector as described previously. HEK293 cells were seeded in six-well plates (3 × 10^5 cells/well). After 24 h, the growth medium was replaced, and cells were transfected using Lipofectamine 2000 (Thermo Fisher Scientific, Bedford, MA, USA) with 12.5 µg of plasmid (plasmid concentration: 1068 µg/mL). Twenty-four hours after transfection, transfected cells were replated in 24-well plates (1.5 × 10^5 cells/well) to ensure homogeneity of the cell population across the wells. Six hours after transfection, 2 mL of fresh medium was replaced, and the cells were cultured for 48 h. Cell growth was examined. […] DMSO was added to the negative control, and 10 µM abiraterone was added to the positive control, and the cells were incubated for 4 h. Functional assays were initiated by adding 1 µM unlabeled progesterone (using 10,000 cpm of [^14C]-progesterone as a tracer). After incubation at 37 °C for 1 h, the culture medium and cells were harvested. Steroids were extracted from the culture medium with ethyl acetate and isooctane (1:1 volume ratio), dried, and dissolved in dichloromethane. Steroids were separated by thin-layer chromatography (TLC), placed on a phosphor screen, and visualized using a Typhoon PhosphorImager FLA-7000 (GE Healthcare Bio-Sciences AB, Uppsala, Sweden). Image intensity was measured and quantified using ImageQuant TL v8 (Cytiva, Marlborough, MA, USA). The CYP21A2 enzyme activity was expressed as relative steroid conversion. Steroids were quantified as a percentage of radioactivity incorporated into […] to the total radioactivity measured in the whole sample and compared between the WT and variants. Cells were collected with trypsin and washed with 1× PBS to quantify the amount of protein. Results were analyzed from three technical replicates. To ensure a similar amount of CYP21A2 in each reaction, a Western blot analysis was performed to normalize the enzyme activity with the relative CYP21A2 expression.
# CYP17A1 17α-hydroxylase = molecular target: T2, CYP17A1 17α-hydroxylase (Homo sapiens, UniProt P05093); assay: CYP17A1 17α-hydroxylase activity assay (progesterone to 17OH-progesterone, reconstituted POR/CYP17A1); assay type: biochemical; conditions: 10 µM (SM extract 10 µg/mL)
# T2 sequence (P05093 1-508): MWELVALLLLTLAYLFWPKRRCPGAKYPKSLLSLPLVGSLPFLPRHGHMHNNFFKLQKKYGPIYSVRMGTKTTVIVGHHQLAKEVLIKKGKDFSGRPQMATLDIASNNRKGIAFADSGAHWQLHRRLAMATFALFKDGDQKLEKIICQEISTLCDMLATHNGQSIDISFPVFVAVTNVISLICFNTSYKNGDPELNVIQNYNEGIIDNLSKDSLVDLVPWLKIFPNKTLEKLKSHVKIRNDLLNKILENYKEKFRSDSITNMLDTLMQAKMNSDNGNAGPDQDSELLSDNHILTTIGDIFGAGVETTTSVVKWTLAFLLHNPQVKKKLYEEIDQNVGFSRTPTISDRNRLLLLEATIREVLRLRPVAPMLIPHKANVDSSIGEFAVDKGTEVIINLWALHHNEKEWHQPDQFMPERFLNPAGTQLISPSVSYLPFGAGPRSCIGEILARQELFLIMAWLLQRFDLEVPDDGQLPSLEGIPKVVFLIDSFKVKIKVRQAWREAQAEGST
# Method: (§1) Assay of CYP17A1 17α-hydroxylase and 17,20-lyase activities were performed as described previously. The 17α-hydroxylase activity was measured by conversion of progesterone to 17OH-progesterone, while production of DHEA from 17OH-pregnenolone was used for monitoring the 17,20-lyase activity of CYP17A1. In vitro CYP17A1 assays were performed using a liposome system consisting of human p450 oxidoreductase (POR) and CYP17A1 at a ratio of 3:4 (POR: CYP17A1). The final assay mixture consisted of proteins (37.5 nmol POR: 50 nmol CYP17A1), 10 mM MgCl2, 6 mM potassium acetate (KOAc), 0.05 mg/mL DLPC,1 mM reduced Glutathione in 50 mM HEPES-NaOH buffer (pH 7.4), and the reaction volume was 200 μL. The drugs were added to the final mixture and incubated for 1h before the catalytic reaction was initiated by the addition of NADPH to 1 mM final concentration. Radiolabeled [^14C]-progesterone (10,000 cpm in 1 µM) was used as a tracer in each reaction. Steroids were extracted and separated by thin-layer chromatography (TLC) on silica gel (SIL G/UV254) TLC plates (Macherey-Nagel, Oensingen, Switzerland) as previously described.
# CYP17A1 17,20-lyase = molecular target: T3, CYP17A1 17,20-lyase (Homo sapiens, UniProt P05093); assay: CYP17A1 17,20-lyase activity assay (DHEA from 17OH-pregnenolone, POR, CYP17A1 and cytochrome b5); assay type: biochemical
# T3 sequence (P05093 1-508): T2 sequence (P05093 1-508)
# Method: as §1, with “The final assay mixture consisted of proteins (37.5 nmol POR: 50 nmol CYP17A1), 10 mM MgCl2, 6 mM potassium acetate (KOAc), 0.05 mg/mL DLPC,1 mM reduced Glutathione in 50 mM HEPES-NaOH buffer (pH 7.4), and the reaction volume was 200 μL.” left out
# In vitro CYP17A1 17,20-lyase activity assays were performed using POR, CYP17A1 and cytochrome b5 as described previously. The final assay mixture consisted of proteins, 10 mM MgCl2, 6 mM KOAc, 0.05 mg/mL DLPC, 1 mM reduced glutathione in 50 mM HEPES-NaOH buffer (pH 7.4), and the reaction volume was 200 μL. The drugs were added to the final mixture and incubated for 1h before the catalytic reaction was initiated by the addition of NADPH to 1 mM final concentration. Radiolabeled [^3H]-17OH-pregnenolone (50,000 cpm in 1 µM) was added as a tracer and the enzyme activity was measured by using the scintillation counter in the water release assay.
smiles,measurement,setting,value
"C[C@]12CC[C@H](O)CC1=CC[C@@H]1[C@@H]2CC[C@]2(C)C(c3cccnc3)=CC[C@@H]12 [Abiraterone, abiraterone, reference compound]",inhibition at 10 µM,"CYP21A2; 10 µM (SM extract 10 µg/mL), calculated as 100% − % residual activity, read-out: % Inhibition CYP21A2",29.8%
same,Residual CYP21A2 activity,"CYP21A2; % of DMSO control, 10 µM",70%
same,inhibition at 10 µM,"CYP17A1 17α-hydroxylase; calculated as 100% − % residual activity, read-out: % Inhibition CYP17A1-OH",94.7%
same,Residual 17α-hydroxylase activity,CYP17A1 17α-hydroxylase; % of DMSO control,5.3%
same,inhibition at 10 µM,"CYP17A1 17,20-lyase; 10 µM (SM extract 10 µg/mL), calculated as 100% − % residual activity, read-out: % Inhibition CYP17A1-Lyase",69.6%
same,"Residual 17,20-lyase activity","CYP17A1 17,20-lyase; % of DMSO control, 10 µM (SM extract 10 µg/mL)",30%
same,Lyase/CYP21A2 Selectivity Index,"CYP17A1 17,20-lyase; (% Inhibition Lyase)/(% Inhibition CYP21A2) at 10 µM (SM 10 µg/mL)",2.34
same,Lyase/OH Selectivity Index,"CYP17A1 17,20-lyase; (% Inhibition Lyase)/(% Inhibition OH) at 10 µM (SM 10 µg/mL)",0.73
